The structures appear in SMILES notation. Calls of active or inactive are those of the source. The rule behind the calls is not given here.

The target in the first assay is Lysine-specific demethylase 6A (Homo sapiens, UniProt O15550). The assay can be described thus: Inhibition of KDM6A.
Lysine-specific demethylase 6A, sequence (O15550 whole entry): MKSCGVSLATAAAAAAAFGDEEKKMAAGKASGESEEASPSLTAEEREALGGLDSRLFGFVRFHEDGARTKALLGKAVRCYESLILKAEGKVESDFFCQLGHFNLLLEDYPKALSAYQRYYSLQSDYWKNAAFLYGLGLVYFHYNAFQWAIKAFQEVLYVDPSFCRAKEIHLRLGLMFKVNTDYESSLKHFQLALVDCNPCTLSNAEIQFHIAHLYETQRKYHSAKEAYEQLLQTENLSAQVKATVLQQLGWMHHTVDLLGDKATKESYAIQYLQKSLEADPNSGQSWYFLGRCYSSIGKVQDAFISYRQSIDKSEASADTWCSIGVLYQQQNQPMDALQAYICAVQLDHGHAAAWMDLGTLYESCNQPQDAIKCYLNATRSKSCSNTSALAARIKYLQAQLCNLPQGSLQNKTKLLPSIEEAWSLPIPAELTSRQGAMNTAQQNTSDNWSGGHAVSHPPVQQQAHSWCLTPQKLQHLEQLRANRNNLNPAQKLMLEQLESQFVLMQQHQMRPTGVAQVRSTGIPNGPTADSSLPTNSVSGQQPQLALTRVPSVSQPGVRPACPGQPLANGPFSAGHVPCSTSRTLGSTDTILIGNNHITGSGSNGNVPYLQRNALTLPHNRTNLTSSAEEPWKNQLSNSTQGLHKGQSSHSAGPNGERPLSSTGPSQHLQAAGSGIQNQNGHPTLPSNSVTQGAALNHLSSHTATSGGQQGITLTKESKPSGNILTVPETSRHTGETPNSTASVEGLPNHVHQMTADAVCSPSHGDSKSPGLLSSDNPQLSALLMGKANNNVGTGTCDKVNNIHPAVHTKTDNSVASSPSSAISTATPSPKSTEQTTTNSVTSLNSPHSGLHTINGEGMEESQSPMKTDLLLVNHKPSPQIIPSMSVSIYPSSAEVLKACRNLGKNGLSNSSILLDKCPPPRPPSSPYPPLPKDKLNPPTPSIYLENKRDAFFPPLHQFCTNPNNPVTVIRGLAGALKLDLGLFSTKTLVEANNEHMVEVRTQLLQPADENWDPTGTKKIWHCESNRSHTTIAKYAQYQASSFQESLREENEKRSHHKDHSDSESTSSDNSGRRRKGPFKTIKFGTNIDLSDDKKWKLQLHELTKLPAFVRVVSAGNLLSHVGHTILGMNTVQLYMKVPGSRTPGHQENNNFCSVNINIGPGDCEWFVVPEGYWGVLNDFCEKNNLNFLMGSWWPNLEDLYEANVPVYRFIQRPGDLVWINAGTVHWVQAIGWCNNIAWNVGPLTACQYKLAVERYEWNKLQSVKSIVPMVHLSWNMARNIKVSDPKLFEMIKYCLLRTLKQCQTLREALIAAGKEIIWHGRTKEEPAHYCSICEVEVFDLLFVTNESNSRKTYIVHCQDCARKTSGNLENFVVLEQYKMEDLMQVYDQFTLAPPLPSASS
Details: not given
The compound `O=C(O)c1ccnc(C(=O)O)c1` showed an IC50 of 177 µM.

Another assay deals with Alcohol dehydrogenase class-3 (Homo sapiens) (UniProt P11766). Briefly: Inhibition of FDH using formalin as substrate at 0.01 to 500 uM after 30 mins by fluorimetry.
Alcohol dehydrogenase class-3 (Homo sapiens), sequence (P11766 2-374 limits assumed): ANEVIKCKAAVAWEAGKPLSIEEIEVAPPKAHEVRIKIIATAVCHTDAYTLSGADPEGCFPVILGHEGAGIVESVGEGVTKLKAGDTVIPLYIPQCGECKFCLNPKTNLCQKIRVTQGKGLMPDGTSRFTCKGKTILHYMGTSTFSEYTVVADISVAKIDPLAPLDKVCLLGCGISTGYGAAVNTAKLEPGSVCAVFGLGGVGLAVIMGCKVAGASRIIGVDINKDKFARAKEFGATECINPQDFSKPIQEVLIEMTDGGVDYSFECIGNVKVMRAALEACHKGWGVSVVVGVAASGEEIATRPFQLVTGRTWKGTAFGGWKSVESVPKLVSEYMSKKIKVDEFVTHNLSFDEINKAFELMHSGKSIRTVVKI
Details: not given
Take `COC(=O)c1n[nH]c(C(=O)OC)c1O`: the inhibition entry was “inactive”.
The same measure, in the same setting: under `Cc1c(O)c(C=O)nn1-c1ccccc1` stands “inactive”.

In another assay the target is T1, Lysine-specific demethylase 4C (Homo sapiens) (UniProt Q9H3R0).
T1 sequence (whole entry): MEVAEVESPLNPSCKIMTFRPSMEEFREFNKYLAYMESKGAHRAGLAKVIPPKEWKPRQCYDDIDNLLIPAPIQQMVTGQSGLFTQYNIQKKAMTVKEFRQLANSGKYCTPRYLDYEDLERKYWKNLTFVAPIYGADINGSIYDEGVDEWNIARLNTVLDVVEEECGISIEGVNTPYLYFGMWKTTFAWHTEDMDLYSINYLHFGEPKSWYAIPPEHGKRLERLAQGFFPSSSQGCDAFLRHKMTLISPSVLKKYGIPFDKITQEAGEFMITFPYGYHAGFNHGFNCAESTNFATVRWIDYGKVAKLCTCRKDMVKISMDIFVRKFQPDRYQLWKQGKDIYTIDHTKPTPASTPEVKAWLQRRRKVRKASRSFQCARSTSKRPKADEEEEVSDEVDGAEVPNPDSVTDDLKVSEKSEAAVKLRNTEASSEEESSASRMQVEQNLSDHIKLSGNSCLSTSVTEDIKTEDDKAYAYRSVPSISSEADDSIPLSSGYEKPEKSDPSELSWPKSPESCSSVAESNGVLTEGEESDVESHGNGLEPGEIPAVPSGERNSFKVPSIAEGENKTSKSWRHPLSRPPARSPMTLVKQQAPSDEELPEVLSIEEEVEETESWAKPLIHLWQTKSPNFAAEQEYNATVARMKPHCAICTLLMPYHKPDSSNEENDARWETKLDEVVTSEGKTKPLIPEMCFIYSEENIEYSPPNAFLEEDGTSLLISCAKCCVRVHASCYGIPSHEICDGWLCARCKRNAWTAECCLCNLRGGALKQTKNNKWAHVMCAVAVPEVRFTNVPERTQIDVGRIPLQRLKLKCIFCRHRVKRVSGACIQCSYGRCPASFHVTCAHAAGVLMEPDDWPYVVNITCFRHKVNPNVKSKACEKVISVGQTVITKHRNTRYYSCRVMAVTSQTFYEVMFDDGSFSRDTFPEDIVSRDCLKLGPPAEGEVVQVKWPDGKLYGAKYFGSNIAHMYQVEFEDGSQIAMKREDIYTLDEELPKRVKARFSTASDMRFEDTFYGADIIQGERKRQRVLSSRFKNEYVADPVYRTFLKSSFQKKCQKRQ
The note with it: 500 uM.
Description: Inhibition of KDM4C catalytic core-mediated demethylation of ARK(Me)3STGGK at 500 uM after 30 mins by FDH-coupled assay in presence of increasing concentration of Fe(II) ions
`COC(=O)c1n[nH]c(C(=O)OC)c1O`: the inhibition entry was “inactive”.

A further assay addresses T2, Lysine-specific demethylase 4C (Homo sapiens, UniProt Q9H3R0).
T2 sequence (Q9H3R0 whole entry): T1 sequence (whole entry)
Briefly: Inhibition of KDM4C catalytic core-mediated demethylation of ARK(Me)3STGGK after 30 mins by FDH-coupled assay.
Details: not given
The compound `C[n+]1nn(Cc2ccccc2)cc1Cl` gave an IC50 greater than 200 µM and a Ki greater than 200 µM.
Consider `Oc1csc(O)n1`, for which the IC50 is greater than 200 µM and the Ki is greater than 200 µM.
On to `COc1sc(-c2ccccc2)nc1Cl`, for which the IC50 was greater than 200 µM and the Ki was greater than 200 µM.
`c1cn[nH]c1` [PYRAZOLE] came in with an IC50 greater than 200 µM and a Ki greater than 200 µM.
The compound `Brc1cn(Cc2ccccc2)nn1` displayed an IC50 greater than 200 µM and a Ki greater than 200 µM.
The compound `Cc1c(Cl)[n+]([O-])nn1-c1ccccc1` returned an IC50 greater than 200 µM and a Ki greater than 200 µM.
The compound `O=C(O)c1cnn(-c2ccccc2)n1` registered an IC50 greater than 200 µM and a Ki greater than 200 µM.
`Cn1c(Cl)cnc1CO` registered an IC50 greater than 200 µM and a Ki greater than 200 µM.
As to `Cn1cc(Br)nc1-c1ccccc1`, the IC50 was greater than 200 µM and the Ki is greater than 200 µM.
Take `Cc1c(C(=O)O)cnn1C`: the IC50 was greater than 200 µM and the Ki is greater than 200 µM.
`CCOC(=O)c1[nH]nnc1C` had an IC50 greater than 200 µM and a Ki greater than 200 µM.
As for `CN1CN(Cc2ccccc2)C=C1S`, the IC50 is greater than 200 µM and the Ki is greater than 200 µM.
Regarding `O=C(O)c1cnnn1-c1ccccc1`, the IC50 is greater than 200 µM and the Ki is greater than 200 µM.
On to `C[n+]1ccnn1-c1ccccc1`, for which the IC50 is greater than 200 µM and the Ki is greater than 200 µM.
As to `COn1nnc(C(=O)O)c1C(=O)O`, the half-maximal inhibitory concentration (IC50) was greater than 200 µM and the Ki is greater than 200 µM.
In the case of `Nc1cn(-c2ccccc2)nn1`, the IC50 was greater than 200 µM and the Ki was greater than 200 µM.
In the case of `Cn1cc(Cl)nc1Cl`, the half-maximal inhibitory concentration (IC50) was greater than 200 µM and the Ki is greater than 200 µM.
Turning to `[O-][n+]1nn(-c2ccccc2)c(Br)c1Br`, the IC50 is greater than 200 µM and the Ki was greater than 200 µM.
On to `[O-][n+]1nn(Cc2ccccc2)cc1Br`, for which the IC50 was greater than 200 µM and the Ki is greater than 200 µM.
In turn, `COC(=O)c1n[nH]c(C(=O)OC)c1O` had an IC50 of 30 µM and a Ki of 51 µM.
`O=C(O)c1cc[nH]n1` displayed an IC50 greater than 200 µM and a Ki greater than 200 µM.
On to `Cc1ccc(-n2nc(C(=O)c3ccccc3)c(O)c2C)cc1`, for which the IC50 is greater than 200 µM and the Ki was greater than 200 µM.
Consider `O=C(O)c1cc([N+](=O)[O-])[nH]n1`, for which the IC50 is greater than 200 µM and the Ki was greater than 200 µM.
`COC(=O)c1n[nH]n(Cc2ccccc2)c1=O`: the IC50 is greater than 200 µM and the Ki was greater than 200 µM.
In turn, `Cc1nn(C)n(C)c1=S` came in with an IC50 greater than 200 µM and a Ki greater than 200 µM.
The compound `Cc1c(O)c(C=O)nn1-c1ccccc1` registered an IC50 of 100 µM and a Ki of 142 µM.
For `CSc1c(Cl)[n+]([O-])nn1-c1ccccc1` the same measures were greater than 200 µM and greater than 200 µM.
On the same counts, the results for `O=C(O)c1cc(C(=O)O)[nH]n1` are greater than 200 µM and greater than 200 µM.
For `OCC1C(Cl)=NNN1c1ccccc1` (stereo unspecified) the same measures were greater than 200 µM and greater than 200 µM.
Take `CCOC(=O)c1nnn(-c2ccccc2)c1NC(C)=O`: the IC50 is greater than 200 µM and the Ki is greater than 200 µM.
On to `[O-][n+]1nn(Cc2ccccc2)c(Br)c1Br`, for which the IC50 is greater than 200 µM and the Ki was greater than 200 µM.
In turn, `O=C1CN=C(c2ccccc2)c2cc([N+](=O)[O-])ccc2N1` [NITRAZEPAM] had an IC50 greater than 200 µM and a Ki greater than 200 µM.
In the case of `[O-][n+]1nn(-c2ccccc2)c(Cl)c1Br`, the IC50 is greater than 200 µM and the Ki is greater than 200 µM.
`CNC(=O)c1nnn(C)c1O` gave an IC50 greater than 200 µM and a Ki greater than 200 µM.
With `[O-][n+]1nn(Cc2ccccc2)c(C(=S)Nc2ccccc2)c1Cl`, the IC50 was greater than 200 µM and the Ki was greater than 200 µM.
Consider `[O-][n+]1nn(Cc2ccccc2)cc1Cl`, for which the IC50 is greater than 200 µM and the Ki is greater than 200 µM.
In turn, `[O-][n+]1nn(-c2ccccc2)c(CO)c1Cl` had an IC50 greater than 200 µM and a Ki greater than 200 µM.
For `O=[N+]([O-])c1cnn(-c2ccccc2)c1`, the IC50 was greater than 200 µM and the inhibitory constant (Ki) was greater than 200 µM.
On to `CN1C=C(Br)N(O)N1`, for which the IC50 is greater than 200 µM and the Ki was greater than 200 µM.
The compound `Cc1ccc(Cn2cc(C(=O)O)nn2)cc1` registered an IC50 greater than 200 µM and a Ki greater than 200 µM.
In the case of `Clc1csc(-c2ccccc2)n1`, the 50% inhibitory concentration (IC50) was greater than 200 µM and the Ki was greater than 200 µM.
Consider `COc1c(-c2ccccc2)nnn1C`, for which the IC50 was greater than 200 µM and the Ki was greater than 200 µM.
`Cn1cc(N)nn1` registered an IC50 greater than 200 µM and a Ki greater than 200 µM.
For the compound `O=C(O)c1cn(-c2ccccc2)nn1`, the IC50 was greater than 200 µM and the Ki is greater than 200 µM.
In turn, `COc1ccc(Cn2nnc(C(=O)O)c2N)cc1` came in with an IC50 greater than 200 µM and a Ki greater than 200 µM.
As for `Cc1c(O)c(C(=O)c2ccccc2)nn1-c1ccccc1`, the IC50 was greater than 200 µM and the Ki is greater than 200 µM.
For `[O-][n+]1nn(-c2ccccc2)c(Br)c1Cl`, the IC50 was greater than 200 µM and the Ki was greater than 200 µM.
`[O-][n+]1nn(-c2ccccc2)c(Cl)c1Cl`: the IC50 was greater than 200 µM and the Ki is greater than 200 µM.
In turn, `N#Cc1cccnc1Nc1cccnc1Cl` yielded an IC50 greater than 200 µM and a Ki greater than 200 µM.
`Cn1cc(C(=O)O)nn1` returned an IC50 greater than 200 µM and a Ki greater than 200 µM.
Compound `OB(O)c1cc[nH]n1` displayed an IC50 greater than 200 µM and a Ki greater than 200 µM.

The values above are taken from ChEMBL document CHEMBL2069183, “Inhibitor scaffold for the histone lysine demethylase KDM4C (JMJD2C)” (Bioorg Med Chem Lett, 2012).
